{"source": "patent US12421277B2", "about": "“Anti-aging salmon roe tripeptide and preparation method and application thereof” (Shenzhen Porshealth Bioengineering Co., Ltd., priority 2023, dated 2025)", "assay": "Blood absorption of YLP in rats, UPLC-MS/MS", "conditions": "rat, in vivo, po, SD rats, intragastric 100 mg/kg bw", "procedure": "In this research, SD rats are used, and divided into three groups: a normal group and salmon YLP groups (with a daily dosage of 100 mg/kg bw). The rats are fasted but allowed to drink water 12 h before the experiment begins. At 15 min, 45 min, 90 min, 180 min and 360 min after intragastric administration, all the rats are anesthetized with the 3% pentobarbital sodium, and blood is collected from abdominal aortas, followed by euthanasia. […]\n• (1) The required samples are taken out for thawing, and uniformly mixed by a vortex. • (2) 40 μL of a mixed sample is taken, and 120 μL of methanol is added for shaking treatment for 10 min, and a resultant is centrifuged at a low temperature for 10 min. • (3) 70 μL of a supernatant solution is taken from the centrifuged sample for subsequent measurement. 4.2.2.2 Preparation of Standard Solution\nChromatographic separation is performed by using a Waters ACQUITY UPLC I-CLASS ultra-high performance liquid chromatographic device. Specific conditions are as follows: chromatographic column Waters UPLC HSS T3 ([…], 2.1 mm×100 mm)—mobile phase: A phase (water, 0.1% formic acid), B phase (methanol)—flow rate: 0.3 mL/min—injection volume: 5.0 μL—column temperature: 40° C. —single sample analysis time: 8 min.\nA Waters XEVO TQ-XS tandem quadrupole mass spectrometer is used for mass spectrometry detection. Specific conditions are as follows: positive ion source voltage: 3.0 kV—cone voltage: 30 V—desolvation temperature: 500° C. —desolvation gas flow rate: […]—cone gas flow rate: […].\nData is expressed in the form of Mean±SD. Graphpad is used for data processing and significance analysis. […] A target peak area in polypeptide metabolic data is calculated by using TargetLynx software, and an allowable error of a retention time is 15 s. Concentration calculation is based on a standard curve method to obtain quantitative results.", "note": "Where a SMILES comes first, the peptide text is derived from it."}
{"smiles": "CC(C)C[C@H](NC(=O)[C@@H](N)Cc1ccc(O)cc1)C(=O)N1CCC[C@H]1C(=O)O", "note": "[YLP] (H-Tyr-Leu-Pro-OH; N-terminus and C-terminus assumed)", "values": [{"measurement": "AUC", "setting": "15-360 min", "result": 6.19, "unit": "ng·h/mL"}, {"measurement": "Cmax", "setting": "at 90 min, read-out: maximum content of YLP in blood", "result": "1.31 ± 0.44", "unit": "ng/mL"}, {"measurement": "Tmax", "setting": "read-out: time of maximum content in blood (converted)", "result": 1.5, "unit": "h"}]}
